# Measurements taken from US20260274829A1, “NEW E3 UBIQUITIN LIGASE LIGAND, PROTEIN DEGRADATION AGENT AND USE THEREOF” (GLUETACS THERAPEUTICS (SHANGHAI) CO., LTD., priority 2023, published 2026).
# Biological target: T1, human Cereblon WT GST-tagged protein (Homo sapiens, UniProt Q96SW2)
# T1 construct: purchased CISBIO 64BDCRBNPEH
# Experiment: CRBN binding, HTRF CEREBLON BINDING kit
# Settings: CRBN binding, HTRF CEREBLON BINDING kit
# Summary of the method: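 Binding inhibition was calculated from the 665/620 nm emission ratios, with blank wells and solvent wells as references. Test compounds competed for GST-tagged human Cereblon WT against a Thalidomide-Re reagent paired with GST Eu antibody. Plates were sealed and held at room temperature for 3 hours before the HTRF read.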
# T1 sequence (Q96SW2 whole entry): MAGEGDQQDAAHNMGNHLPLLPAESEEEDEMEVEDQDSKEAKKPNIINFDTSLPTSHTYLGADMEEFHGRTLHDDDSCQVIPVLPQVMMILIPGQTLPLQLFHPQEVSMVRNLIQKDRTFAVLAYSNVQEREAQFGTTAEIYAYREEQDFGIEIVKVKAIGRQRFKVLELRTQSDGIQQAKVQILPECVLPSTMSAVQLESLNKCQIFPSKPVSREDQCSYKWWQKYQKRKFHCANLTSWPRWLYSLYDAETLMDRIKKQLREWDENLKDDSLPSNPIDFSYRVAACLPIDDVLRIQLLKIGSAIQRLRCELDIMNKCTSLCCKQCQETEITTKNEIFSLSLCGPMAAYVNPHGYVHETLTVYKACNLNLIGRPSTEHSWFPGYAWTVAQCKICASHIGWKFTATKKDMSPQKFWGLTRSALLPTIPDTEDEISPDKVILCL
row,SMILES,IC50
1,"O=C1CCC(Nc2cccc(CN3CCN(C4CCN(c5ccc(Nc6ncc7nc(Nc8ccccc8)n(C8CCCC8)c7n6)cc5)CC4)CC3)c2)C(=O)N1 (stereo not shown) [GT-05943, 3-((3-((4-(1-(4-((9-cyclopentyl-8-(phenylamino)-9H-purin-2-yl)amino)phenyl)piperidin-4-yl)piperazin-1-yl)methyl)phenyl)amino)piperidine-2,6-dione]",0.5 to 1 µM
2,"CN(Cc1cc(N2CCC(=O)NC2=O)ncc1F)C1CCN(c2ccc(-c3cc(F)c4c(c3)C(=O)N(C(C(=O)Nc3nccs3)c3ncn5c3CCC5)C4)cc2)CC1 (stereo not shown) [GT-07382, 2-(6,7-dihydro-5H-pyrrolo[1,2-c]imidazol-1-yl)-2-(6-(4-(4-(((2-(2,4-dioxotetrahydropyrimidin-1(2H)-yl)-5-fluoropyridin-4-yl)methyl)(methyl)amino)piperidin-1-yl)phenyl)-4-fluoro-1-oxoisoindolin-2-yl)-N-(thiazol-2-yl)acetamide]",0.5 to 1 µM
3,"O=C1CCC(c2ccc(CN3C4CCC3CN(c3ccc(-c5cc(F)c6c(c5)C(=O)N(C(C(=O)Nc5nccs5)c5ncn7c5CCC7)C6)cc3)C4)cc2)C(=O)N1 (stereo not shown) [GT-06252, 2-(6,7-dihydro-5H-pyrrolo[1,2-c]imidazol-1-yl)-2-(6-(4-(8-(4-(2,6-dioxopiperidin-3-yl)benzyl)-3,8-diazabicyclo[3.2.1]octan-3-yl)phenyl)-4-fluoro-1-oxoisoindolin-2-yl)-N-(thiazol-2-yl)acetamide]",< 0.5 µM
4,"Cc1cc(S(=O)(=O)N2CCN(Cc3cccc(N4CCC(=O)NC4=O)c3)CC2)ccc1Nc1ncc(Br)c(Nc2cccc(F)c2C(N)=O)n1 [GT-06832, 2-((5-bromo-2-((4-((4-(3-(2,4-dioxotetrahydropyrimidin-1(2H)-yl)benzyl)piperazin-1-yl)sulfonyl)-2-methylphenyl)amino)pyrimidin-4-yl)amino)-6-fluorobenzamide]",< 0.5 µM
5,"COc1cc2nn(C3CCN(Cc4ccc(N5CCC(=O)NC5=O)c(F)c4)CC3)cc2cc1NC(=O)c1cccc(C(F)(F)F)n1 [GT-04775, N-(2-(1-(4-(2,4-dioxotetrahydropyrimidin-1(2H)-yl)-3-fluorobenzyl)piperidin-4-yl)-6-methoxy-2H-indazol-5-yl)-6-(trifluoromethyl)picolinamide]",1 to 1.9 µM
6,"Cc1cc(-c2nc(C(=O)Nc3cc4oc(N5CCN(Cc6cccc(N7CCC(=O)NC7=O)c6)CC5)nc4nc3N3CC[C@@H](O)C3)co2)ccn1 [GT-05808, (R)—N-(2-(4-(3-(2,4-dioxotetrahydropyrimidin-1(2H)-yl)benzyl)piperazin-1-yl)-5-(3-hydroxypyrrolidin-1-yl)oxazolo[4,5-b]pyridin-6-yl)-2-(2-methylpyridin-4-yl)oxazole-4-carboxamide]",0.5 to 1 µM
7,"O=C1CCC(Nc2cccc(CN3C[C@@H]4C[C@H]3CN4c3ccc(-c4cc(F)c5c(c4)C(=O)N(C(C(=O)Nc4nccs4)c4ncn6c4CCC6)C5)cc3)c2)C(=O)N1 (stereo partly drawn) [GT-05118, 2-(6,7-dihydro-5H-pyrrolo[1,2-c]imidazol-1-yl)-2-(6-(4-((1S,4S)-5-(3-((2,6-dioxopiperidin-3-yl)amino)benzyl)-2,5-diazabicyclo[2.2.1]heptan-2-yl)phenyl)-4-fluoro-1-oxoisoindolin-2-yl)-N-(thiazol-2-yl)acetamide]",0.5 to 1 µM
8,"O=C1CCN(c2cccc(CN3C4CCC3CN(c3ccc(-c5cc(F)c6c(c5)C(=O)N(C(C(=O)Nc5nccs5)c5ncn7c5CCC7)C6)cc3)C4)c2)C(=O)N1 (stereo not shown) [GT-06254, 2-(6,7-dihydro-5H-pyrrolo[1,2-c]imidazol-1-yl)-2-(6-(4-(8-(3-(2,4-dioxotetrahydropyrimidin-1(2H)-yl)benzyl)-3,8-diazabicyclo[3.2.1]octan-3-yl)phenyl)-4-fluoro-1-oxoisoindolin-2-yl)-N-(thiazol-2-yl)acetamide]",< 0.5 µM
9,"O=C1CCN(c2ccc(CN3CCN(C4CCN(c5ccc(-c6cc(F)c7c(c6)C(=O)N(C(C(=O)Nc6nccs6)c6ncn8c6CCC8)C7)cc5)CC4(F)F)CC3)nc2)C(=O)N1 (stereo not shown) [GT-06319, 2-(6,7-dihydro-5H-pyrrolo[1,2-c]imidazol-1-yl)-2-(6-(4-(4-(4-((5-(2,4-dioxotetrahydropyrimidin-1(2H)-yl)pyridin-2-yl)methyl)piperazin-1-yl)-3,3-difluoropiperidin-1-yl)phenyl)-4-fluoro-1-oxoisoindolin-2-yl)-N-(thiazol-2-yl)acetamide]",< 0.5 µM
10,"Cc1cc(Nc2ncc(Cl)c(Nc3ccccc3S(=O)(=O)C(C)C)n2)c(OC(C)C)cc1C1CCN(Cc2cccc(N3CCC(=O)NC3=O)c2)CC1 [GT-07593, 1-(3-((4-(4-((5-chloro-4-((2-(isopropylsulfonyl)phenyl)amino)pyrimidin-2-yl)amino)-5-isopropoxy-2-methylphenyl)piperidin-1-yl)methyl)phenyl)dihydropyrimidine-2,4(1H,3H)-dione]",0.5 to 1 µM
11,"O=C1CCN(c2cccc(CN3CCC(n4cc(NC(=O)c5cnn6ccc(N7C[C@H]8C[C@@H]7CO8)nc56)c(C(F)F)n4)CC3)c2)C(=O)N1 [GT-05051, 5-((1R,4R)-2-oxa-5-azabicyclo[2.2.1]heptan-5-yl)-N-(3-(difluoromethyl)-1-(1-(3-(2,4-dioxotetrahydropyrimidin-1(2H)-yl)benzyl)piperidin-4-yl)-1H-pyrazol-4-yl)pyrazolo[1,5-a]pyrimidine-3-carboxamide]",0.5 to 1 µM
12,"COc1cc2nn(C3CCN(Cc4cccc(NC5CCC(=O)NC5=O)c4)CC3)cc2cc1NC(=O)c1cccc(C(F)(F)F)n1 (stereo not shown) [GT-04763, N-(2-(1-(3-((2,6-dioxopiperidin-3-yl)amino)benzyl)piperidin-4-yl)-6-methoxy-2H-indazol-5-yl)-6-(trifluoromethyl)picolinamide]",0.5 to 1 µM
13,"COc1cc(N2CCC(N3CCN(Cc4cccc(N5CCC(=O)NC5=O)c4)CC3)CC2)c(C)cc1Nc1ncc(Br)c(Nc2ccc3nccnc3c2P(C)(C)=O)n1 [GT-04260, 1-(3-((4-(1-(4-((5-bromo-4-((5-(dimethylphosphoryl)quinoxalin-6-yl)amino)pyrimidin-2-yl)amino)-5-methoxy-2-methylphenyl)piperidin-4-yl)piperazin-1-yl)methyl)phenyl)dihydropyrimidine-2,4(1H,3H)-dione]",1 to 1.9 µM
14,"CC(=O)c1c(C)c2cnc(Nc3ccc(N4CCN(Cc5ccc(C6CCC(=O)NC6=O)cc5)CC4)cn3)nc2n(C2CCCC2)c1=O (stereo not shown) [GT-06575, 3-(4-((4-(6-((6-acetyl-8-cyclopentyl-5-methyl-7-oxo-7,8-dihydropyrido[2,3-d]pyrimidin-2-yl)amino)pyridin-3-yl)piperazin-1-yl)methyl)phenyl)piperidine-2,6-dione]",0.5 to 1 µM
15,"O=C1CCC(Nc2cccc(CN3C[C@H]4C[C@@H]3CN4c3ccc(-c4cc(F)c5c(c4)C(=O)N(C(C(=O)Nc4nccs4)c4ncn6c4CCC6)C5)cc3)c2)C(=O)N1 (stereo partly drawn) [GT-06179, 2-(6,7-dihydro-5H-pyrrolo[1,2-c]imidazol-1-yl)-2-(6-(4-((1R,4R)-5-(3-((2,6-dioxopiperidin-3-yl)amino)benzyl)-2,5-diazabicyclo[2.2.1]heptan-2-yl)phenyl)-4-fluoro-1-oxoisoindolin-2-yl)-N-(thiazol-2-yl)acetamide]",0.5 to 1 µM
16,"O=C1CCC(c2cnc(F)c(CN3CCN(c4ccc(-c5cc(F)c6c(c5)C(=O)N(C(C(=O)Nc5nccs5)c5ncn7c5CCC7)C6)cc4)CC3)c2)C(=O)N1 (stereo not shown) [GT-07490, 2-(6,7-dihydro-5H-pyrrolo[1,2-c]imidazol-1-yl)-2-(6-(4-(4-((5-(2,6-dioxopiperidin-3-yl)-2-fluoropyridin-3-yl)methyl)piperazin-1-yl)phenyl)-4-fluoro-1-oxoisoindolin-2-yl)-N-(thiazol-2-yl)acetamide]",< 0.5 µM
17,"O=C1CCN(c2ccc(CN3CCC(N4CCN(c5ccc6c(c5)nc(NC(=O)c5cccc(C(F)(F)F)c5)n6[C@H]5CC[C@@H](CO)CC5)CC4)CC3)nc2)C(=O)N1 [GT-05024, N-(5-(4-(1-((5-(2,4-dioxotetrahydropyrimidin-1(2H)-yl)pyridin-2-yl)methyl)piperidin-4-yl)piperazin-1-yl)-1-((1s,4s)-4-(hydroxymethyl)cyclohexyl)-1H-benzo[d]imidazol-2-yl)-3-(trifluoromethyl)benzamide]",1 to 1.9 µM
18,"Cc1nc2c(F)cc(-c3nc(Nc4ccc(N5CCC(N6CCN(Cc7cccc(N8CCC(=O)NC8=O)c7)CC6)CC5)cn4)ncc3F)cc2n1C(C)C [GT-06740, 1-(3-((4-(1-(6-((5-fluoro-4-(4-fluoro-1-isopropyl-2-methyl-1H-benzo[d]imidazol-6-yl)pyrimidin-2-yl)amino)pyridin-3-yl)piperidin-4-yl)piperazin-1-yl)methyl)phenyl)dihydropyrimidine-2,4(1H,3H)-dione]",0.5 to 1 µM
19,"CN(Cc1ccc(N2CCC(=O)NC2=O)cn1)C1CCN(c2ccc(Nc3ncc4nc(Nc5ccccc5)n(C5CCCC5)c4n3)cc2)CC1 [GT-07093, 1-(6-(((1-(4-((9-cyclopentyl-8-(phenylamino)-9H-purin-2-yl)amino)phenyl)piperidin-4-yl)(methyl)amino)methyl)pyridin-3-yl)dihydropyrimidine-2,4(1H,3H)-dione]",0.5 to 1 µM
20,"Cc1cc(Nc2ncc(Cl)c(Nc3ccccc3S(=O)(=O)C(C)C)n2)c(OC(C)C)cc1C1CCN(Cc2ccc(C3CCC(=O)NC3=O)cc2)CC1 (stereo not shown) [GT-07364, 3-(4-((4-(4-((5-chloro-4-((2-(isopropylsulfonyl)phenyl)amino)pyrimidin-2-yl)amino)-5-isopropoxy-2-methylphenyl)piperidin-1-yl)methyl)phenyl)piperidine-2,6-dione]",0.5 to 1 µM

# Same assay, conditions: CRBN binding, HTRF; compound at 0.5 μM
row,SMILES,Inhibition rate (%) at 0.5 μM
1,"COc1cc2nn(C3CCN(Cc4cc(N5CCC(=O)NC5=O)cnc4F)CC3)cc2cc1NC(=O)c1cccc(C(F)(F)F)c1 [GT-07781, N-(2-(1-((5-(2,4-dioxotetrahydropyrimidin-1(2H)-yl)-2-fluoropyridin-3-yl)methyl)piperidin-4-yl)-6-methoxy-2H-indazol-5-yl)-3-(trifluoromethyl)benzamide]",a1 (10% < a1 ≤ 20%)

# Same assay, conditions: CRBN binding, HTRF; compound at 2 μM
row,SMILES,Inhibition rate (%) at 2 μM
1,"COc1cc2nn(C3CCN(Cc4cc(N5CCC(=O)NC5=O)cnc4F)CC3)cc2cc1NC(=O)c1cccc(C(F)(F)F)c1 [GT-07781, N-(2-(1-((5-(2,4-dioxotetrahydropyrimidin-1(2H)-yl)-2-fluoropyridin-3-yl)methyl)piperidin-4-yl)-6-methoxy-2H-indazol-5-yl)-3-(trifluoromethyl)benzamide]",a5 (53% < a5 ≤ 60%)
